# Columns and labels:
# Format in all cases: cell-based, Neurospora crassa
# [1] = tested on: cellobiohydrolase I (cbh-1, NCU07340); assay: Quantitative RT-PCR of cbh-1 expression after 4 h induction with a carbon source
# Experimental: (§1) Strains were inoculated at an OD595 equal to 0.05 in 50 ml Vogel's salts with 2% (wt/vol) sucrose in a 250 ml Erlenmeyer flask and grown under constant light at 200 rpm for 16 hours. The biomass was then spun at 4000 rpm for 10 minutes and washed in Vogel's twice to remove any excess sucrose. The biomass was then added to a new 50 ml culture with 2% (wt/vol) sucrose, cellobiose (Sigma) or Avicel® PH 101 (Avicel®). Cultures were induced for 4 hours under constant light at 200 rpm. The culture biomass was then harvested by filtration over a Whatman glass microfiber filter (GF/F) on a Buchner funnel and washed with 50 ml Vogel's, biomass was flash frozen in liquid Nitrogen and stored at −80° C.
# (§2) Total RNA from frozen samples was isolated using Zirconia/Silica beads (0.2 g, 0.5 mm diameter; Biospec) and a Mini-Beadbeater-96 (Biospec) with 1 mL TRIzol reagent (Invitrogen) according to manufacturer's instructions. Total RNA was further purified by digestion with TURBO DNA-free (Ambion) and an RNeasy kit (Qiagen). RNA integrity was checked by Nanodrop and agarose gel electrophoresis.
# (§3) Quantitative RT-PCR was performed using the EXPRESS One-Step SYBR GreenER Kit (Invitrogen) and the StepOnePlus Real-Time PCR System (Applied Biosystems). Reactions were performed in triplicate with a total reaction volume of 10 ul including 300 nM each forward and reverse primers and 75 ng template RNA. Data Analysis was performed by the StepOne Software (Applied Biosystems) using Relative Quantitation/Comparative CT (ΔΔCT). Data was normalized to the endogenous control actin with expression on sucrose as the reference sample. Error bars indicate a 95% confidence interval. The RT-PCR primers were used as described in (Tian et al., 2009).
# (§4) Conidia from strains were inoculated at an OD595 equal to 0.05 in 50 ml Vogel's salts (45) with 2% w/v sucrose in a 250 ml Erlenmeyer flask and grown under constant light at 200 rpm for 16 hours. Biomass was then spun at 4200 rpm for 10 minutes and washed in Vogel's salts twice to remove any excess sucrose. Biomass was then added to a new flask containing 50 ml Vogel's salts supplemented with 1% w/v sucrose, 0.2% w/v cellobiose (Sigma) or 1% w/v Avicel® PH 101 (Sigma). Cultures were induced for 4 hrs under constant light at 200 rpm. The culture biomass was then harvested by filtration over a Whatman glass microfiber filter (GF/F) on a Buchner funnel and washed with 50 ml Vogel's salts. […] Three independent biological duplicates (flasks) were evaluated for each time point. […]
# (§5) Quantitative RT-PCR was performed using the EXPRESS One-Step SYBR GreenER Kit (Invitrogen) and the StepOnePlus Real-Time PCR System (Applied Biosystems). […] Data Analysis was performed by the StepOne Software (Applied Biosystems) using the Relative Quantitation/Comparative CT (ΔΔCT) setting. […]
# [2] = tested on: cbh-2 / gh6-2 (NCU09680); assay: Quantitative RT-PCR of cbh-2/gh6-2 expression after 4 h induction with a carbon source
# Experimental: as §1, §2
# as §3, with “Data was normalized to the endogenous control actin with expression on sucrose as the reference sample. Error bars indicate a 95% confidence interval. The RT-PCR primers were used as described in (Tian et al., 2009).” left out
# Conidia from strains were inoculated at an OD595 equal to 0.05 in 50 ml Vogel's salts (45) with 2% w/v sucrose in a 250 ml Erlenmeyer flask and grown under constant light at 200 rpm for 16 hours. […] Three independent biological duplicates (flasks) were evaluated for each time point. […]
# as §5
# [3] = tested on: endoglucanase 2 (eg-2 / gh5-1, NCU00762); assay: Quantitative RT-PCR of eg-2/gh5-1 expression after 4 h induction with a carbon source
# Experimental: as §1, §2, §3, §4, §5
# [4] = tested on: cbh-1; assay: mRNA sequencing (RNA-Seq), transcript abundance of cbh-1; conditions: Δ3βG; 4 hours after transfer to 0.2% cellobiose
# Experimental: (§6) Conidia from strains were inoculated at an OD595 equal to 0.05 in 50 ml Vogel's salts (45) with 2% w/v sucrose in a 250 ml Erlenmeyer flask and grown under constant light at 200 rpm for 16 hours. Biomass was then spun at 4200 rpm for 10 minutes and washed in Vogel's salts twice to remove any excess sucrose. Biomass was then added to a new flask containing 50 ml Vogel's salts supplemented with 1% w/v sucrose, 0.2% w/v cellobiose (Sigma) or 1% w/v Avicel® PH 101 (Sigma). Cultures were induced for 4 hrs under constant light at 200 rpm. The culture biomass was then harvested by filtration over a Whatman glass microfiber filter (GF/F) on a Buchner funnel and washed with 50 ml Vogel's salts. The biomass was flash frozen in liquid nitrogen and stored at −80° C. Three independent biological duplicates (flasks) were evaluated for each time point.
# (§7) Total RNA from frozen samples was isolated using Zirconia/Silica beads (0.5 mm diameter; Biospec) and a Mini-Beadbeater-96 (Biospec) with 1 mL TRIzol reagent (Invitrogen) according to the manufacturer's instructions. […]
# (§8) mRNA sequencing was performed using an Illumina kit (RS-100-0801) with isolated RNA. The final cDNA library was quantified by an Agilent bioanalyzer 2000 and sequenced using an Illumina Genome Analyzer-II using standard Illumina operating procedures. […]
# [5] = tested on: NCU05924 (endoxylanase, gh10-1); assay: mRNA sequencing (RNA-Seq), transcript abundance of gh10-1; conditions: Δ3βG mutant; 4 hours after transfer to 0.2% cellobiose
# Experimental: as §6, §7, §8
# [6] = tested on: Exoglucanase (Cellobiohydrolase I); assay: MuLac (4-Methylumbelliferyl β-D-cellobioside) exoglucanase activity of culture supernatant; conditions: for MuLac activity: triple β-glucosidase deletion
# Experimental: Strains were inoculated at an OD595 equal to 0.05 in 100 ml Vogel's salts with 1% (wt/vol) sucrose in a 250 ml Erlenmeyer flask and grown under constant light at 200 rpm for 24 hours. Cultures were then induced with 2% sucrose, 2% cellobiose, 1% sucrose/1% cellobiose, or 1% sucrose/1% Avicel®. Cultures continued to grow under constant light at 200 rpm for 5 days with supernatant collected at 1, 2, 3, 4 and 5 day. The collected supernatant was filtered through a 0.2 μm PES filter to remove biomass before being stored at −20° C. until all samples were collected. To visualize the secreted proteins, 15 μl of unconcentrated supernatant was run on a Criterion 10% Tris-HCL polyacrylamide gel and stained with Thermo Scientific GelCode Blue Stain Reagent.
# Exoglucanase (Cellobiohydrolase I) activity was measured using a 4-Methylumbelliferyl β-D-cellobioside (MuLac) assay. This assay mainly measures the activity of CBH-1 and activity is expressed as the change in fluorescence over time resulting in the slope of a best-fit line as an indication of enzyme activity. Prior to performing this assay, any excess sugars in the culture supernatant were removed by passing the supernatant over a 5,000 Dalton concentrator (sartorius stedim Vivaspin 500). Retained proteins were washed twice with 50 mM sodium acetate pH 5 and diluted to 2 μg/μl to assure that the assay remained in the linear range. […] The assay was performed in a Beckman Coulter Paradigm plate reader set at 40° C. with excitation/emission wavelengths of 360/465 nm with readings every 30 seconds for 10 minutes. The slope of the best-fit line represents the MuLac activity for an individual culture supernatant. The MuLac activity is normalized to the initial dilution required to obtain a 2 μg/μl concentration in order to represent the undiluted activity. The activity of recombinant cellobiohydrolase-1 was used as a standard and data is presented as a percentage of the wild type activity on Avicel® after 4 days.
# [7] = WT strain, 2% carbon source, 4 h induction
# [8] = triple β-glucosidase mutant, 2% carbon source, 4 h induction
# [9] = Δcre-1 strain, 4 h induction (Example 1)
# [10] = Δcre-1 strain, shifted from sucrose to 0.2% cellobiose for 4 hrs
structure (smiles),measurement,setting,value
O=C[C@H](O)[C@@H](O)[C@H](O[C@@H]1O[C@H](CO)[C@@H](O)[C@H](O)[C@H]1O)[C@H](O)CO [cellobiose],induction for cbh-1 compared to relative expression on sucrose,[1]; [7],20 fold
same,cbh-1 increase in relative expression over expression on sucrose,[1]; [8],"6,500 fold"
same,increase in transcription of cbh-1 above expression on sucrose in the same strain,[1]; [9],600 fold
same,induction of cbh-1,[1]; [10],"3,000 fold"
same,cbh-2 relative expression compared to sucrose,[2]; [7],no change
same,cbh-2 increase in relative expression over expression on sucrose,[2]; [8],"2,100 fold"
same,induction of gh6-2,[2]; [10],85 fold
same,eg-2 relative expression compared to sucrose,[3]; [7],no change
same,eg-2 increase in relative expression over expression on sucrose,[3]; [8],"2,200 fold"
same,increase in transcription of eg-2 above expression on sucrose in the same strain,[3]; [9],80 fold
same,induction of gh5-1,[3]; [10],500 fold
same,FPKM for cbh-1,[4],"130,865 FPKM"
same,"FPKMs of NCU05924 (endoxylanase, gh10-1)",[5],"10,000 FPKMs"
same,MuLac activity,[6]; 4 days,4.84 μg CBHI equivalent
same,MuLac activity,[6]; two days,1.4 μg recombinant CBHI
same,MuLac activity (CBHI equivalent produced),"[6]; triple β-glucosidase/Δcre-1 deletion strain, four days",more than 11 μg CBHI equivalent
same,activity towards MuLac,"[6]; Δcre-1, time not stated",0.8 µg
